# Test results published in the METLIN SMRT retention time set (Domingo-Almenara et al. 2019).
# Assay: gradient 5% acetonitrile 3 min, to 50% in 2 min, to 85% in 15 min, held 3 min, 100 µL/min
# Settings: column: Zorbax Extend-C18 2.1 x 50 mm; eluents: water / acetonitrile, 0.1% formic acid
# Procedure, shortened: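 Retention times of pure standards were taken from adduct peaks that were selected by computer and manually inspected. Over 3 months, mixtures of ~100 molecules were run by HPLC–quadrupole time-of-flight mass spectrometry in positive and negative ionization mode. The Zorbax Extend-C18 column (2.1 × 50 mm, 1.8 μm) ran at 100 μL/min in water and acetonitrile, each containing 0.1% formic acid, with 40 μL dead volume and 900 μL dwell volume.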
row,Compound,RP-LC retention time [s]
1,Cc1nc(-c2cccs2)c(CCC(=O)NC2CCCC2)s1,773
2,O=C(CSc1nnc2ccccn12)N1CCOCC1,551
3,Clc1ccc(-c2nc(N3CCN(c4ccccn4)CC3)c3ccccc3n2)cc1,618
4,O=C(NCc1ccc2[nH]c3c(c2c1)CCCC3)C1CC1,735
5,COCCn1c(=O)c2c(nc3n2CCCN3c2ccccc2)n(C)c1=O,738
6,Cc1ccc(C2=NC3(CCN(C(=O)Nc4ccc5c(c4)OCO5)CC3)NC2=O)cc1,714
7,CC(=O)N1CCc2cc(N3CC(C(=O)Nc4ccc5c(c4)OCCO5)CC3=O)ccc21 (stereo unspecified),667
8,O=C1CN(Cc2ccc(F)cc2Cl)CC2(CCCCC2)N1CC1CC1,1330
9,COCCN1C(=O)c2ccccc2C(C(=O)NCCc2ccc(OC)cc2)C12CCCC2 (stereo unspecified),807
10,O=C(NCc1ccco1)C1CCN(c2nc3ccsc3c(=O)n2Cc2ccccc2)CC1,829
11,CCOc1ccc(C2c3[nH]c4ccccc4c3CCN2C(=O)CCC2CCCC2)cc1 (stereo unspecified),1460
12,CCOCCCNC(=O)C1c2cc(OC)c(OC)cc2C(=O)N2CCc3ccccc3C12 (stereo unspecified),718
13,CCOC(=O)c1noc2ncnc(NCC3CCN(Cc4cccc(Cl)c4)CC3)c12,603
14,CC(C)Cn1c(=O)c2cc(C(=O)N3CCSCC3)nn2c2ccccc21,955
15,O=C(Cn1nc2n(c1=O)CCCC2)NCc1ccccc1,640
16,Cc1cc(=O)n(CC(=O)N2CCCc3ccccc32)c(N2CCCCC2)n1,703
17,Cc1ccccc1N1CCN(CCc2nnc3n2CCCC3)CC1,573
18,CCNc1nc(NC(C)C)nc(-c2ccncc2)n1,733
19,CCCN(CCC)C1CCc2ccc(O)cc2C1 (stereo unspecified),640
20,CCSc1nnc(NC(=O)CCc2csc(NC(=O)c3cccs3)n2)s1,788
21,CCOc1ccc(CNC(=O)C2CCCN(C(=O)c3[nH]c(C)c(C(=O)OC(C)C)c3C)C2)cc1 (stereo unspecified),877
22,CCNC(=O)N1CCc2c(c(-c3nc(-c4ccc(F)cc4)no3)nn2C)C1,788
23,CCOC(=O)N1CCN(C(=O)Cn2c(-c3cccn(C)c3=O)nc3ccccc32)CC1,553

row,Compound,RP-LC retention time [s]
1,CO[C@H]1C(=O)N(C2CCN(S(=O)(=O)c3ccc(C#N)cc3)CC2)[C@H]1c1ccncc1,624
2,COC(=O)CSCC(=O)Nc1cc(C(F)(F)F)ccc1Cl,613
3,CCC(CC)NC(=O)C1Cn2cccc2C(=O)N1C (stereo unspecified),661
4,CNC(=O)C1CN(C(=O)Cc2cccc(Cl)c2)CC12CCCC2 (stereo unspecified),740
5,O=C(Nc1ccnn1Cc1cccs1)c1ccccc1Br,794
6,COC(=O)c1cc(OCC(=O)Nc2cc(F)ccc2F)c2ccccc2n1,838
7,CCOC(=O)c1ccc(NC(=O)N(C)Cc2nc3cc(C(=O)N(C)C)ccc3n2C)cc1,634
8,O=C1CCCc2cc(S(=O)(=O)N3CCN(c4ccccn4)CC3)ccc2N1,589
9,Cc1cccc(NC(=O)C2CCCN(c3cc(=O)n(C)c(=O)n3C)C2)c1 (stereo unspecified),735
10,CCCN(C(=O)c1ccc2c(c1)OCO2)c1nc(-c2ccccc2)cs1,1260
11,COc1ccc(-c2cn3c(CC(=O)N4CCN(c5ccc(Cl)cc5)CC4)csc3n2)cc1OC,816
12,O=C(CN1CCN(c2ccccn2)CC1)Nc1ccc(F)c(F)c1,576
13,CCn1c(=O)sc2cc(S(=O)(=O)N3CCC(C(=O)NCc4ccc(C)o4)CC3)ccc21,861
14,CCCn1nnc2cc(-c3noc(CNC(=O)c4ccccc4)n3)ccc21,624
15,Cc1ccc(S(=O)(=O)N2C[C@H]3CN(C(=O)Nc4cccc(C)c4)C[C@@H](C2)O3)cc1,852
16,COc1ccc(-c2noc(-c3nnn(Cc4nc(-c5ccccc5OC)oc4C)c3C)n2)cc1OC,1000
17,Clc1cccc(-c2nc3ccc(Cl)cn3c2Nc2ccc3c(c2)OCO3)c1,978
18,Cc1ccc(N2CCN(C(=O)c3cn4cc(C)ccc4n3)CC2)cc1,690
19,O=C(N[C@@H]1CN(Cc2ccc3c(c2)CCO3)C[C@H]1CO)C1CCC1,591
20,CC1(C)CC(=O)c2cn(-c3ccccc3)c(=O)c(C(=O)NCC3CCCO3)c2C1 (stereo unspecified),738
21,COc1ccccc1-c1nc2cnccn2c1NCCC(=O)NC1CCCC1,618
22,CCc1nn(CC)c(=O)c2cc(S(=O)(=O)NC(C)c3ccccc3)cn12 (stereo unspecified),964
23,COc1ccc(-c2ncc3c(n2)CCN(S(=O)(=O)c2cccc(F)c2)C3)cc1,1060

row,Compound,RP-LC retention time [s]
1,CCc1nccn1Cc1nc(-c2ccc(C(F)(F)F)cc2)no1,700
2,CC(C)N1C(=O)c2cccnc2Sc2cc(C(=O)NC3CC3)ccc21,702
3,CCC(=O)NCc1csc(C2CCCN(C(=O)C(C)(C)C)C2)n1 (stereo unspecified),681
4,O=C(NCC1CCOCC1)Nc1ccccc1Cl,741
5,COC(=O)C1=C(C)N(C2CCCC2)C(=O)C1(NC(=O)c1ccccc1OC)C(F)(F)F (stereo unspecified),1070
6,CC(C)N1C(=O)C(C)N(C(=O)NC2CCCC2)c2cccnc21 (stereo unspecified),924
7,COc1ccc(-c2noc(-c3ccc(N4CCN(c5ccc(OC)cc5)CC4)nc3)n2)cc1,1240
8,CCc1ccccc1NC(=O)COc1nc(C)nc2ccccc12,747
9,Cc1ccc(-n2cc3c(c(C(=O)NC(C)C)c2=O)CC(C)(C)CC3=O)cc1,932
10,Cc1ccc(NC(=O)N2CCN(CCn3cnc4cccnc43)CC2)c(C)c1,594
11,Cc1ccc(NS(=O)(=O)c2ccc3c(c2)CCCC(=O)N3)cc1Cl,806
12,Cc1ccc(S(=O)(=O)N2CCC3(CC2)CCC(O)(CN2CCCC2)CC3)c(C)c1,602
13,CCOC(=O)C1CCN(C(=O)c2sc(-c3cn(C(C)C)c4ncccc34)nc2C)CC1,961
14,O=C(NCCN1CCCCCC1)C1CCN(c2nc3cccnc3s2)CC1,598
15,Cc1ccccc1Cn1cc(S(=O)(=O)N2CCOCC2)ccc1=O,784
16,O=C(C1CC1)N1CCC(c2noc(-c3ccccn3)n2)C1 (stereo unspecified),636
17,CC(=O)Nc1ccc(Br)cc1C(=O)c1ccccc1,840
18,Cc1noc(-c2cccnc2N2CCN(C(c3ccccc3)c3ccccc3)CC2)n1,742
19,CC(O)(CNC(=O)C(=O)NCCC1=CCCCC1)c1cccs1 (stereo unspecified),1120
20,CCOCCCNC(=O)N1CCC(c2noc(-c3cnccn3)n2)C1 (stereo unspecified),614
21,COc1ccc(OC)c(CNC(=O)C2CCN(c3ncnc4c3oc3ccccc34)CC2)c1,754
22,Cn1c(=O)c2ccn(CC(=O)N3CCN(c4ccccc4F)CC3)c2n(C)c1=O,851
23,CCNC(=O)C1CCN(S(C)(=O)=O)c2cc(Cl)ccc2O1 (stereo unspecified),736

row,Compound,RP-LC retention time [s]
1,O=C(NC1CCCC1)C1CCN(c2nc3ccc(-c4cncnc4)nc3s2)CC1,776
2,COc1cccc(C(=O)N2CCCC(c3nnc(-c4ccccc4)o3)C2)c1 (stereo unspecified),822
3,Cc1cccc(OCc2nc(-c3ccc4oc(C)nc4c3)no2)c1,1180
4,Cc1nn(CC(=O)NCCC2=CCCCC2)c(=O)c2c(C)n(-c3ccccc3)nc12,870
5,CCCC(C)C(=O)N1CC2CN(S(=O)(=O)c3ccccc3)CC(C1)O2 (stereo unspecified),807
6,COc1ccc(OC)c(NC(=O)CN2C(=O)NC(c3ccc(Cl)cc3)C3=C2COC3=O)c1 (stereo unspecified),790
7,Cc1cc(C)n(-c2cc(N3CCCC(C(=O)Nc4cccc(C(F)(F)F)c4)C3)ncn2)n1 (stereo unspecified),1060
8,Cn1nc(CNC(=O)C2CC(=O)N(C3CCCCC3)C2)c2c1CCN(S(C)(=O)=O)C2 (stereo unspecified),645
9,CCn1cc(-c2nc(CC(=O)Nc3ccccc3)cs2)c2cccnc21,892
10,Cc1cc(C)c(-c2noc(C)n2)c(NC(=O)c2ccc(C)c(F)c2)n1,781
11,COc1cc(OC)c(NC(=O)Cc2nnc(-c3ccc4ncccc4c3)o2)cc1Cl,936
12,CC(C)N1CCN(Cc2nc(-c3ccc(N(C)Cc4ccccc4)nc3)no2)CC1,661
13,COc1ccc(C(=O)NC2(c3nc(C)no3)CCCCC2)cc1F,854
14,COc1ccc(CCC(=O)N(C)CCc2noc(COc3ccc(OC)cc3)n2)cc1,911
15,Cc1ccc(-c2csc(Cc3nc(-c4ccc(F)cc4)no3)n2)cc1C,1320
16,O=C(NS(=O)(=O)c1ccc(F)cc1)c1ccccc1,744
17,CN(CC1(C)CCOCC1)C(=O)c1ccccc1Br,806
18,Cc1ccc(NC(=O)Cn2cnc3nc(N4CCCC(C(=O)NC(C)C)C4)sc3c2=O)cc1F (stereo unspecified),739
19,Cc1ccc(-c2noc(Cc3nc(-c4ccccc4)cs3)n2)cc1,1260
20,CC(C)c1ccc(S(=O)(=O)NCC(c2cccnc2)c2c[nH]c3ccccc23)cc1 (stereo unspecified),772
21,CC1CCC(NC(=O)C2CCCN2S(=O)(=O)c2cc3c(cc2Cl)NC(=O)CO3)CC1 (stereo unspecified),840
22,Cc1ccc(C)c(NC(=O)C2CC(=O)N(CCc3c[nH]c4ccc(F)cc34)C2)c1 (stereo unspecified),586
